In PubChem BioAssay AID2060899 (Molecular Pharmacology Branch, DTP, NCI, 2025):
Each block holds one molecule with its values, some of them ahead of it.

System: 565726-208-R1-J5-PDC complex spheroids, growth inhibition
Test: Anticancer human tumor 565726-208-R1-J5-PDC patient-derived pancreatic adenocarcinoma cell line growth inhibition [RAS]
Conditions: for IC50: curve of first compound; for viability, T/C: stronger effect = lower value
How it was run: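 Multi-cell-type spheroids: tumor cells plus HUVEC endothelial cells and mesenchymal stem cells. RAS-pathway inhibitors were combined with targeted agents, each dosed in half-log steps down from clinical Cmax, or from 10 microM when Cmax was unknown.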

[1] = second compound 0.000949 µM, first compound 0.0316 µM
[2] = second compound 0.000949 µM, first compound 0.1 µM
[3] = second compound 0.000949 µM, first compound 0.316 µM
[4] = second compound 0.000949 µM, first compound 1 µM
[5] = second compound 0.000949 µM, first compound 3.16 µM
[6] = second compound 0.000949 µM, first compound 10 µM
[7] = second compound 0.003 µM, first compound 0.0316 µM
[8] = second compound 0.003 µM, first compound 0.1 µM
[9] = second compound 0.003 µM, first compound 0.316 µM
[10] = second compound 0.003 µM, first compound 1 µM
[11] = second compound 0.003 µM, first compound 3.16 µM
[12] = second compound 0.003 µM, first compound 10 µM
[13] = second compound 0.00949 µM, first compound 0.0316 µM
[14] = second compound 0.00949 µM, first compound 0.1 µM
[15] = second compound 0.00949 µM, first compound 0.316 µM
[16] = second compound 0.00949 µM, first compound 1 µM
[17] = second compound 0.00949 µM, first compound 3.16 µM
[18] = second compound 0.00949 µM, first compound 10 µM
[19] = second compound 0.03 µM, first compound 0.0316 µM
[20] = second compound 0.03 µM, first compound 0.1 µM
[21] = second compound 0.03 µM, first compound 0.316 µM
[22] = second compound 0.03 µM, first compound 1 µM
[23] = second compound 0.03 µM, first compound 3.16 µM
[24] = second compound 0.03 µM, first compound 10 µM
[25] = second compound 0.0949 µM, first compound 0.0316 µM
[26] = second compound 0.0949 µM, first compound 0.1 µM
[27] = second compound 0.0949 µM, first compound 0.316 µM
[28] = second compound 0.0949 µM, first compound 1 µM
[29] = second compound 0.0949 µM, first compound 3.16 µM
[30] = second compound 0.0949 µM, first compound 10 µM
[31] = second compound 0.3 µM, first compound 0.0316 µM
[32] = second compound 0.3 µM, first compound 0.1 µM
[33] = second compound 0.3 µM, first compound 0.316 µM
[34] = second compound 0.3 µM, first compound 1 µM
[35] = second compound 0.3 µM, first compound 3.16 µM
[36] = second compound 0.3 µM, first compound 10 µM
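Note: spheroids exposed to compounds for seven days before readout.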
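Throughout, for viability, T/C: 100% = DMSO vehicle control viability.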

IC50 (second compound 0.000949 µM): > 10 µM
IC50 (second compound 0.003 µM): > 10 µM
IC50 (second compound 0.00949 µM): > 10 µM
IC50 (second compound 0.03 µM): > 10 µM
IC50 (second compound 0.0949 µM): > 10 µM
IC50 (second compound 0.3 µM): 7.56 µM
Structure (SMILES): CC(C)NCC(C(=O)N1CCN(c2ncnc3c2C(C)CC3O)CC1)c1ccc(Cl)cc1 (stereo not drawn) + CCn1c(-c2cccnc2C(C)OC)c2c3cc(ccc31)N1CCOC(CC(NC(=O)C(C(C)C)N(C)C(=O)C3(F)CCN(C(=O)C#CC(C)(C)N(C)C)CC3)C(=O)N3CCCC(N3)C(=O)OCC(C)(C)C2)C1
viability, T/C [1]: 106%
viability, T/C [2]: 94.1%
viability, T/C [3]: 97.6%
viability, T/C [4]: 85.1%
viability, T/C [5]: 74%
viability, T/C [6]: 56.6%
viability, T/C [7]: 105%
viability, T/C [8]: 99.2%
viability, T/C [9]: 105%
viability, T/C [10]: 94.7%
viability, T/C [11]: 84.2%
viability, T/C [12]: 59.4%
viability, T/C [13]: 96%
viability, T/C [14]: 104%
viability, T/C [15]: 94.3%
viability, T/C [16]: 99.8%
viability, T/C [17]: 88.1%
viability, T/C [18]: 57.1%
viability, T/C [19]: 101%
viability, T/C [20]: 95.5%
viability, T/C [21]: 106%
viability, T/C [22]: 89.4%
viability, T/C [23]: 84.4%
viability, T/C [24]: 56.5%
viability, T/C [25]: 93.5%
viability, T/C [26]: 98.8%
viability, T/C [27]: 96.9%
viability, T/C [28]: 86.5%
viability, T/C [29]: 85.5%
viability, T/C [30]: 57.7%
viability, T/C [31]: 95.2%
viability, T/C [32]: 87%
viability, T/C [33]: 85.8%
viability, T/C [34]: 80.8%
viability, T/C [35]: 70.7%
viability, T/C [36]: 43.2%

IC50 (second compound 0.000949 µM): 0.0192 µM
IC50 (second compound 0.003 µM): 0.0268 µM
IC50 (second compound 0.00949 µM): 0.0245 µM
IC50 (second compound 0.03 µM): 0.0231 µM
IC50 (second compound 0.0949 µM): 0.0188 µM
IC50 (second compound 0.3 µM): 0.013 µM
Structure (SMILES): CC(C)n1nc(-c2ccc3oc(N)nc3c2)c2c(N)ncnc21 + CCn1c(-c2cccnc2C(C)OC)c2c3cc(ccc31)N1CCOC(CC(NC(=O)C(C(C)C)N(C)C(=O)C3(F)CCN(C(=O)C#CC(C)(C)N(C)C)CC3)C(=O)N3CCCC(N3)C(=O)OCC(C)(C)C2)C1
viability, T/C (second compound 0.000949 µM, first compound 0.000316 µM): 95.6%
viability, T/C (second compound 0.000949 µM, first compound 0.001 µM): 91.2%
viability, T/C (second compound 0.000949 µM, first compound 0.00316 µM): 91.5%
viability, T/C (second compound 0.000949 µM, first compound 0.01 µM): 59.8%
viability, T/C [1]: 43.4%
viability, T/C [2]: 27.5%
viability, T/C (second compound 0.003 µM, first compound 0.000316 µM): 101%
viability, T/C (second compound 0.003 µM, first compound 0.001 µM): 90.5%
viability, T/C (second compound 0.003 µM, first compound 0.00316 µM): 85.2%
viability, T/C (second compound 0.003 µM, first compound 0.01 µM): 67.1%
viability, T/C [7]: 46.5%
viability, T/C [8]: 28.1%
viability, T/C (second compound 0.00949 µM, first compound 0.000316 µM): 103%
viability, T/C (second compound 0.00949 µM, first compound 0.001 µM): 93.9%
viability, T/C (second compound 0.00949 µM, first compound 0.00316 µM): 86.8%
viability, T/C (second compound 0.00949 µM, first compound 0.01 µM): 69.8%
viability, T/C [13]: 43.2%
viability, T/C [14]: 26.9%
viability, T/C (second compound 0.03 µM, first compound 0.000316 µM): 83.2%
viability, T/C (second compound 0.03 µM, first compound 0.001 µM): 91%
viability, T/C (second compound 0.03 µM, first compound 0.00316 µM): 79%
viability, T/C (second compound 0.03 µM, first compound 0.01 µM): 68.8%
viability, T/C [19]: 43%
viability, T/C [20]: 26.7%
viability, T/C (second compound 0.0949 µM, first compound 0.000316 µM): 93%
viability, T/C (second compound 0.0949 µM, first compound 0.001 µM): 92.1%
viability, T/C (second compound 0.0949 µM, first compound 0.00316 µM): 82.5%
viability, T/C (second compound 0.0949 µM, first compound 0.01 µM): 62.1%
viability, T/C [25]: 40.2%
viability, T/C [26]: 25.1%
viability, T/C (second compound 0.3 µM, first compound 0.000316 µM): 89.3%
viability, T/C (second compound 0.3 µM, first compound 0.001 µM): 85.1%
viability, T/C (second compound 0.3 µM, first compound 0.00316 µM): 75.2%
viability, T/C (second compound 0.3 µM, first compound 0.01 µM): 54.8%
viability, T/C [31]: 33.8%
viability, T/C [32]: 24%

IC50 (second compound 0.000949 µM): > 10 µM
IC50 (second compound 0.003 µM): > 10 µM
IC50 (second compound 0.00949 µM): 8.98 µM
IC50 (second compound 0.03 µM): 8.76 µM
IC50 (second compound 0.0949 µM): 7.05 µM
IC50 (second compound 0.3 µM): 2.39 µM
Structure (SMILES): CC(Nc1ccc2c(c1)OCCn1cc(N3C(=O)OCC3C(F)F)nc1-2)C(N)=O (stereo not drawn) + CCn1c(-c2cccnc2C(C)OC)c2c3cc(ccc31)N1CCOC(CC(NC(=O)C(C(C)C)N(C)C(=O)C3(F)CCN(C(=O)C#CC(C)(C)N(C)C)CC3)C(=O)N3CCCC(N3)C(=O)OCC(C)(C)C2)C1
viability, T/C [1]: 87.5%
viability, T/C [2]: 80.8%
viability, T/C [3]: 77.3%
viability, T/C [4]: 72.8%
viability, T/C [5]: 64.8%
viability, T/C [6]: 50.7%
viability, T/C [7]: 93.7%
viability, T/C [8]: 88.4%
viability, T/C [9]: 75%
viability, T/C [10]: 75.9%
viability, T/C [11]: 62.9%
viability, T/C [12]: 52.9%
viability, T/C [13]: 92.3%
viability, T/C [14]: 91.2%
viability, T/C [15]: 77.8%
viability, T/C [16]: 77.6%
viability, T/C [17]: 63.7%
viability, T/C [18]: 47.7%
viability, T/C [19]: 93%
viability, T/C [20]: 85.6%
viability, T/C [21]: 80.4%
viability, T/C [22]: 71.1%
viability, T/C [23]: 55.2%
viability, T/C [24]: 49.9%
viability, T/C [25]: 88.8%
viability, T/C [26]: 82.4%
viability, T/C [27]: 84.4%
viability, T/C [28]: 65.9%
viability, T/C [29]: 63%
viability, T/C [30]: 44.8%
viability, T/C [31]: 80%
viability, T/C [32]: 72.8%
viability, T/C [33]: 72%
viability, T/C [34]: 63.7%
viability, T/C [35]: 44.9%
viability, T/C [36]: 38.2%

IC50 (second compound 0.000949 µM): > 10 µM
IC50 (second compound 0.003 µM): > 10 µM
IC50 (second compound 0.00949 µM): > 10 µM
IC50 (second compound 0.03 µM): > 10 µM
IC50 (second compound 0.0949 µM): > 10 µM
IC50 (second compound 0.3 µM): > 10 µM
Structure (SMILES): C[C@@H](NC(=O)c1ncnc(N)c1Cl)c1ncc(C(=O)Nc2cc(C(F)(F)F)c(Cl)cn2)s1 + CCn1c(-c2cccnc2C(C)OC)c2c3cc(ccc31)N1CCOC(CC(NC(=O)C(C(C)C)N(C)C(=O)C3(F)CCN(C(=O)C#CC(C)(C)N(C)C)CC3)C(=O)N3CCCC(N3)C(=O)OCC(C)(C)C2)C1
viability, T/C [1]: 111%
viability, T/C [2]: 109%
viability, T/C [3]: 113%
viability, T/C [4]: 103%
viability, T/C [5]: 98.1%
viability, T/C [6]: 83.3%
viability, T/C [7]: 118%
viability, T/C [8]: 111%
viability, T/C [9]: 107%
viability, T/C [10]: 109%
viability, T/C [11]: 98%
viability, T/C [12]: 79.8%
viability, T/C [13]: 108%
viability, T/C [14]: 107%
viability, T/C [15]: 104%
viability, T/C [16]: 114%
viability, T/C [17]: 105%
viability, T/C [18]: 82.2%
viability, T/C [19]: 102%
viability, T/C [20]: 110%
viability, T/C [21]: 112%
viability, T/C [22]: 112%
viability, T/C [23]: 105%
viability, T/C [24]: 80.9%
viability, T/C [25]: 108%
viability, T/C [26]: 101%
viability, T/C [27]: 99.7%
viability, T/C [28]: 108%
viability, T/C [29]: 90.1%
viability, T/C [30]: 90.6%
viability, T/C [31]: 91.3%
viability, T/C [32]: 98.7%
viability, T/C [33]: 95%
viability, T/C [34]: 107%
viability, T/C [35]: 90%
viability, T/C [36]: 77.5%
